Like-named read-outs stand apart in the source and are kept apart here.

The target of one experiment is T1, SHP2 (full length) (Homo sapiens, UniProt Q06124).
T1 construct: SHP2 (full length, diluted to 100 pM final concentration in reaction buffer, BPS bioscience, US); purchased BPS bioscience, US
T1 sequence (Q06124 1-593): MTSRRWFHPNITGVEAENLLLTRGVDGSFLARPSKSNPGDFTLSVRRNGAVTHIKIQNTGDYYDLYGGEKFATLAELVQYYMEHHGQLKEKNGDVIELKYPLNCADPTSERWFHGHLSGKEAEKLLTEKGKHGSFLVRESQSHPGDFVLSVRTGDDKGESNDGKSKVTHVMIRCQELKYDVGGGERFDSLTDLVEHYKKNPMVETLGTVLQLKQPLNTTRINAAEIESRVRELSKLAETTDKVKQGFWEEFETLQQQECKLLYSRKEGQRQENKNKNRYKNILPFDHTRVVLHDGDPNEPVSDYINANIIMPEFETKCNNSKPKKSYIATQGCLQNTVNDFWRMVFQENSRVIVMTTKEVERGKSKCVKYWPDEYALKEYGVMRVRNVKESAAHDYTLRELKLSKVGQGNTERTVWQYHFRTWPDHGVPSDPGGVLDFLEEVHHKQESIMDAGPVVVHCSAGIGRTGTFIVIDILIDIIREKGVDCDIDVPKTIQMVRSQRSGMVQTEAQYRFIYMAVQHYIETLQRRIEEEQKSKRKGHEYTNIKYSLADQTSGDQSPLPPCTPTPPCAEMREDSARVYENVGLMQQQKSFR
The experiment can be described thus: Phosphatase assay (PTPase assay) with DiFMUP substrate. The experiment is classed as biochemical. Conditions: SHP2 activated with SHP2 activating peptide, DiFMUP 80 μM, 2 hours, fluorescence.

For experiment [1], the system named is phospho-ERK in MIA PaCa2 or H358 cells. The experiment can be described thus: Phospho-ERK assay (AlphaLisa). The format is cell-based. A general note: In Alpha technology, singlet oxygen from a donor bead excites a nearby acceptor bead.
Setting [2] is: 1.5 h, MIA PaCa2 or H358 cells, compound incubated 1.5 hours, read-out: IC50 (p-ERK).
Setting [3] is: MIA PaCa2 or H358 cells, compound incubated 1.5 hours, read-out: IC50 (p-ERK).

Consider `C[C@@H]1OCC2(CCN(c3cnc(Sc4ccc5ncn(CCC(N)=O)c(=O)c5c4Cl)cn3)CC2)[C@@H]1N` [Example 98, 3-(6-((5-((3S,4S)-4-amino-3-methyl-2-oxa-8-azaspiro[4.5]decan-8-yl)pyrazin-2-yl)thio)-5-chloro-4-oxoquinazolin-3(4H)-yl)propanamide], for which the figures for the IC50 (on SHP2 (full length) (read-out: IC50 (PTPase aS say)); in experiment [1] (setting [2])) were 3 to 100 nM and 45 to 1500 nM, respectively.

`Cn1c(N2CCN(CCN)CC2)nc(N)c(Sc2ccnc(Cl)c2Cl)c1=O` [Example 193, 6-amino-2-(4-(2-aminoethyl)piperazin-1-yl)-5-((2,3-dichloropyridin-4-yl)thio)-3-methylpyrimidin-4(3H)-one]: the IC50 at SHP2 (full length) (read-out: IC50 (PTPase aS say)) is > 100 nM; in experiment [1] (setting [2]) it was > 1500 nM.

Turning to `COCCn1cnc2ccc(Sc3cnc(N4CCC5(CC4)Cc4ncccc4[C@H]5N)cn3)c(Cl)c2c1=O` [Example 108], the IC50 lay in the range of 3 to 100 nM on SHP2 (full length) (read-out: IC50 (PTPase aS say)) and 45 to 1500 nM in experiment [1] (setting [2]).

Regarding `N[C@@H]1c2cccnc2CC12CCN(c1cnc(Sc3ccc4ncn(Cc5ccncn5)c(=O)c4c3Cl)cn1)CC2` [Example 141, (S)-6-((5-(5-amino-5,7-dihydrospiro[yclopenta[b]pyridine-6,4′-piperidin]-1′-yl)pyrazin-2-yl)thio)-5-chloro-3-(pyrimidin-4-ylmethyl)quinazolin-4(3H)-one], the IC50 at SHP2 (full length) (read-out: IC50 (PTPase aS say)) was < 3 nM; in experiment [1] (setting [2]), < 45 nM.

In the case of `C[C@@H]1OCC2(CCN(c3cnc(Sc4ccc5ncn(CCOC(F)(F)F)c(=O)c5c4Cl)cn3)CC2)[C@@H]1N` [Example 96, 6-((5-((3S,4S)-4-amino-3-methyl-2-oxa-8-azaspiro[4.5]decan-8-yl)pyrazin-2-yl)thio)-5-chloro-3-(2-(trifluoromethoxy)ethyl)quinazolin-4(3H)-one], the IC50 at SHP2 (full length) (read-out: IC50 (PTPase aS say)) is 3 to 100 nM; in experiment [1] (setting [2]), < 45 nM.

Regarding `Cn1c(N2CCN(CCN)CC2)nc(N)c(Sc2cccc(Cl)c2Cl)c1=O` [Example 194, 6-amino-2-(4-(2-aminoethyl)piperazin-1-yl)-5-((2,3-dichlorophenyl)thio)-3-methylpyrimidin-4(3H)-one], the figures for the IC50 (at SHP2 (full length) (read-out: IC50 (PTPase aS say)); in experiment [1] (setting [2])) were > 100 nM and > 1500 nM, respectively.

Consider `COCCn1cnc2ccc(Sc3ccc(N4CCC5(CC4)CO[C@@H](C)[C@H]5N)cn3)c(Cl)c2c1=O` [Example 181, 6-((5-((3S,4S)-4-amino-3-methyl-2-oxa-8-azaspiro[4.5]decan-8-yl)pyridin-2-yl)thio)-5-chloro-3-(2-methoxyethyl)quinazolin-4(3H)-one], for which the IC50 at SHP2 (full length) (read-out: IC50 (PTPase aS say)) was 3 to 100 nM; in experiment [1] (setting [3]) it was 45 to 1500 nM.

Regarding `C[C@@H]1OCC2(CCN(c3cnc(Sc4ccc5ncn(CCN(C)C)c(=O)c5c4Cl)cn3)CC2)[C@@H]1N` [Example 67, 6-((5-((3S,4S)-4-amino-3-methyl-2-oxa-8-azaspiro[4.5]decan-8-yl)pyrazin-2-yl)thio)-5-chloro-3-(2-(dimethylamino)ethyl)quinazolin-4(3H)-one], the IC50 lay in the range of 3 to 100 nM on SHP2 (full length) (read-out: IC50 (PTPase aS say)) and 45 to 1500 nM in experiment [1] (setting [2]).

Regarding `C[C@@H]1OCC2(CCN(c3cnc(Sc4ccc5ncn(CC(F)(F)F)c(=O)c5c4Cl)cn3)CC2)[C@@H]1N` [Example 75, 6-((5-((3S,4S)-4-amino-3-methyl-2-oxa-8-azaspiro[4.5]decan-8-yl)pyrazin-2-yl)thio)-5-chloro-3-(2,2,2-trifluoroethyl)quinazolin-4(3H)-one], the figures for the IC50 (on SHP2 (full length) (read-out: IC50 (PTPase aS say)); in experiment [1] (setting [2])) were 3 to 100 nM and 45 to 1500 nM, respectively.

Turning to `Cn1c(N2CCC(C)(N)CC2)nc(N)c(Sc2ccc3nc[nH]c(=O)c3c2Cl)c1=O` [Example 29, 6-((4-amino-2-(4-amino-4-methylpiperidin-1-yl)-1-methyl-6-oxo-1,6-dihydropyrimidin-5-yl)thio)-5-chloroquinazolin-4(3H)-one], the IC50 on SHP2 (full length) (read-out: IC50 (PTPase aS say)) was > 100 nM; in experiment [1] (setting [2]), > 1500 nM.

With `C[C@@H]1OCC2(CCN(c3cnc(Sc4ccc5ncn(CC6CCCN6C)c(=O)c5c4Cl)cn3)CC2)[C@@H]1N` (stereo partly drawn) [Example 74, 6-((5-((3S,4S)-4-amino-3-methyl-2-oxa-8-azaspiro[4.5]decan-8-yl)pyrazin-2-yl)thio)-5-chloro-3-((l-methylpyrrolidin-2-yl)methyl)quinazolin-4(3H)-one], the IC50 at SHP2 (full length) (read-out: IC50 (PTPase aS say)) was in the range of 3 to 100 nM; in experiment [1] (setting [2]) it was 45 to 1500 nM.

`C[C@@H]1OCC2(CCN(c3cnc(Sc4ccc5ncn(CCCO)c(=O)c5c4Cl)cn3)CC2)[C@@H]1N` [Example 63, 6-((5-((3S,4S)-4-amino-3-methyl-2-oxa-8-azaspiro[4.5]decan-8-yl)pyrazin-2-yl)thio)-5-chloro-3-(3-hydroxypropyl)quinazolin-4(3H)-one]: the IC50 was < 3 nM on SHP2 (full length) (read-out: IC50 (PTPase aS say)) and < 45 nM in experiment [1] (setting [2]).

As for `C[C@@H]1OCC2(CCN(c3cnc(Sc4ccc5ncn(CC6=CCOCC6)c(=O)c5c4Cl)cn3)CC2)[C@@H]1N` [Example 117, 6-((5-(3S,4S)-4-amino-3-methyl-2-oxa-8-azaspiro[4,5]decan-8-yl)pyrazin-2-yl)thio)-5-chloro-(3-((3,6-dihydro-2H-pyran-4-yl)methyl)quinazolin-4(3H)-one], the IC50 on SHP2 (full length) (read-out: IC50 (PTPase aS say)) was in the range of 3 to 100 nM; in experiment [1] (setting [2]), 45 to 1500 nM.

Consider `N[C@@H]1c2scnc2CC12CCN(c1cnc(Sc3ccc4ncn(CC5CCOCC5)c(=O)c4c3Cl)cn1)CC2` [Example 149], for which the IC50 was < 3 nM on SHP2 (full length) (read-out: IC50 (PTPase aS say)) and < 45 nM in experiment [1] (setting [2]).

With `Cc1nc2ccc(Sc3cnc(N4CCC(C)(CN)CC4)cn3)c(Cl)c2c(=O)[nH]1` [Example 22, 6-((5-(4-(aminomethyl)-4-methylpiperidin-1-yl)pyrazin-2-yl)thio)-5-chloro-2-methylquinazolin-4(3H)-one], the IC50 fell in the range of 3 to 100 nM at SHP2 (full length) (read-out: IC50 (PTPase aS say)) and 45 to 1500 nM in experiment [1] (setting [2]).

As for `COCCn1cnc2ccc(Sc3cnc(N4CCC5(CC4)CO[C@@H](C)[C@H]5N)n4ccnc34)c(Cl)c2c1=O` [Example 182, 6-((5-((3S,4S)-4-amino-3-methyl-2-oxa-8-azaspiro[4.5]decan-8-yl)imidazo[1,2-c]pyrimidin-8-yl)thio)-5-chloro-3-(2-methoxyethyl)quinazolin-4(3H)-one], the IC50 lay in the range of 3 to 100 nM at SHP2 (full length) (read-out: IC50 (PTPase aS say)) and 45 to 1500 nM in experiment [1] (setting [3]).

Turning to `CC(=O)Cn1cnc2ccc(Sc3cnc(N4CCC5(CC4)Cc4ncccc4[C@H]5N)cn3)c(Cl)c2c1=O` [Example 112], the results for the IC50 (on SHP2 (full length) (read-out: IC50 (PTPase aS say)); in experiment [1] (setting [3])) were < 3 nM and < 45 nM, respectively.

As for `C[C@@H]1OCC2(CCN(c3cnc(Sc4ccc5ncn(Cc6ccoc6)c(=O)c5c4Cl)cn3)CC2)[C@@H]1N` [Example 119], the IC50 on SHP2 (full length) (read-out: IC50 (PTPase aS say)) is < 3 nM; in experiment [1] (setting [2]), < 45 nM.

`C[C@@H]1OCC2(CCN(c3cnc(Sc4ccc5ncn(Cc6ccccn6)c(=O)c5c4Cl)cn3)CC2)[C@@H]1N` [Example 88, 6-((5-((3S,4S)-4-amino-3-methyl-2-oxa-8-azaspiro[4.5]decan-8-yl)pyrazin-2-yl)thio)-5-chloro-3-(pyridin-2-ylmethyl)quinazolin-4(3H)-one]: the IC50 at SHP2 (full length) (read-out: IC50 (PTPase aS say)) was < 3 nM; in experiment [1] (setting [2]), < 45 nM.

Regarding `C[C@@H]1OCC2(CCN(c3cnc(Sc4ccc5ncn(CC6CCC(=O)CC6)c(=O)c5c4Cl)cn3)CC2)[C@@H]1N` [Example 121], the values for the IC50 (at SHP2 (full length) (read-out: IC50 (PTPase aS say)); in experiment [1] (setting [2])) were < 3 nM and < 45 nM, respectively.

For the compound `C[C@@H]1OCC2(CCN(c3cnc(Sc4cccc(S(=O)(=O)F)c4Cl)cn3)CC2)[C@@H]1N` [Example 11, 3-((5-((3S,4S)-4-amino-3-methyl-2-oxa-8-azaspiro[4.5]decan-8-yl)pyrazin-2-yl)thio)-2-chlorobenzenesulfonyl fluoride], the IC50 against SHP2 (full length) (IC50 (PTPase aS say, nM)) is < 3 nM; in experiment [1] (1.5 h, read-out: IC50 (p-ERK, nM)), < 45 nM.

For the compound `C[C@@H]1OCC2(CCN(c3cnc(Sc4ccc5ncn(CCCF)c(=O)c5c4Cl)cn3)CC2)[C@@H]1N` [Example 77, 6-((5-((3S,4S)-4-amino-3-methyl-2-oxa-8-azaspiro[4.5]decan-8-yl)pyrazin-2-yl)thio)-5-chloro-3-(3-fluoropropyl)quinazolin-4(3H)-one], the IC50 on SHP2 (full length) (read-out: IC50 (PTPase aS say)) was < 3 nM; in experiment [1] (setting [2]), < 45 nM.

With `COCCn1cnc2ccc(Sc3cnc(N4CCC5(CC4)CO[C@@H](C)[C@H]5N)cn3)c(F)c2c1=O` [Example 156], the IC50 was 3 to 100 nM at SHP2 (full length) (read-out: IC50 (PTPase aS say)) and < 45 nM in experiment [1] (setting [2]).

Consider `C[C@@H]1OCC2(CCN(c3cnc(Sc4ccc5ncn(-c6ccccc6)c(=O)c5c4Cl)cn3)CC2)[C@@H]1N` [Example 51, 6-((5-((3S,4S)-4-amino-3-methyl-2-oxa-8-azaspiro[4.5]decan-8-yl)pyrazin-2-yl)thio)-5-chloro-3-phenylquinazolin-4(3H)-one], for which the figures for the IC50 (on SHP2 (full length) (read-out: IC50 (PTPase aS say)); in experiment [1] (setting [2])) were < 3 nM and 45 to 1500 nM, respectively.

Turning to `C[C@@H]1OCC2(CCN(c3cnc(Sc4ccc5nc(Cc6ccccc6)[nH]c5c4Cl)cn3)CC2)[C@@H]1N` [Example 50, (3S,4S)-8-(5-((2-benzyl-7-chloro-1H-benzo[d]imidazol-6-yl)thio)pyrazin-2-yl)-3-methyl-2-oxa-8-azaspiro[4.5]decan-4-amine], the IC50 was in the range of 3 to 100 nM at SHP2 (full length) (read-out: IC50 (PTPase aS say)) and 45 to 1500 nM in experiment [1] (setting [2]).

In general, IC50 refers to the concentration at which inhibition is half-maximal.

These data come from patent US12029739B2, “SHP2 inhibitor and use thereof” (KANAPH THERAPEUTICS INC., priority 2021, dated 2024).
